Key:
Conditions in all cases: 72 h
Caco-2 [1] = experiment: cell viability relative to DMSO; higher = less toxic
Calu-3 [2] = experiment: as above
HepG2 [3] = experiment: as above
U2OS [4] = experiment: as above
Vero E6 [5] = experiment: as above
Caco-2 [6] = experiment: relative viability EC50 (midpoint between 100% and the lowest measured viability); higher = less toxic
Calu-3 [7] = experiment: as above
HepG2 [8] = experiment: as above
U2OS [9] = experiment: as above
Vero E6 [10] = experiment: as above
Caco-2 [11] = experiment: drug sensitivity score (DSS) for viability; higher = more toxic; extreme values may be limits of the assay
Calu-3 [12] = experiment: as above
HepG2 [13] = experiment: as above
U2OS [14] = experiment: as above
Vero E6 [15] = experiment: as above

| SMILES | cell viability (Caco-2 [1]; 1 nM) | cell viability (Caco-2 [1]; 10 nM) | cell viability (Caco-2 [1]; 100 nM) | cell viability (Caco-2 [1]; 1000 nM) | cell viability (Caco-2 [1]; 10000 nM) | cell viability (Calu-3 [2]; 1 nM) | cell viability (Calu-3 [2]; 10 nM) | cell viability (Calu-3 [2]; 100 nM) | cell viability (Calu-3 [2]; 1000 nM) | cell viability (Calu-3 [2]; 10000 nM) | cell viability (HepG2 [3]; 1 nM) | cell viability (HepG2 [3]; 10 nM) | cell viability (HepG2 [3]; 100 nM) | cell viability (HepG2 [3]; 1000 nM) | cell viability (HepG2 [3]; 10000 nM) | cell viability (U2OS [4]; 1 nM) | cell viability (U2OS [4]; 10 nM) | cell viability (U2OS [4]; 100 nM) | cell viability (U2OS [4]; 1000 nM) | cell viability (U2OS [4]; 10000 nM) | cell viability (Vero E6 [5]; 1 nM) | cell viability (Vero E6 [5]; 10 nM) | cell viability (Vero E6 [5]; 100 nM) | cell viability (Vero E6 [5]; 1000 nM) | cell viability (Vero E6 [5]; 10000 nM) | relative viability EC50 (Caco-2 [6]) | relative viability EC50 (Calu-3 [7]) | relative viability EC50 (HepG2 [8]) | relative viability EC50 (U2OS [9]) | relative viability EC50 (Vero E6 [10]) | drug sensitivity score (Caco-2 [11]) | drug sensitivity score (Calu-3 [12]) | drug sensitivity score (HepG2 [13]) | drug sensitivity score (U2OS [14]) | drug sensitivity score (Vero E6 [15]) |
| --- | --- | --- | --- | --- | --- | --- | --- | --- | --- | --- | --- | --- | --- | --- | --- | --- | --- | --- | --- | --- | --- | --- | --- | --- | --- | --- | --- | --- | --- | --- | --- | --- | --- | --- | --- |
| CCCCC#Cc1nc(NC)c2ncn([C@@H]3O[C@H](CO)[C@@H](O)[C@H]3O)c2n1 [HEMADO] | 103% | 89% | 102% | 104% | 102% | 102% | 108% | 84.6% | 102% | 91.1% | 111% | 103% | 99.7% | 103% | 104% | 102% | 102% | 96.1% | 103% | 101% | 110% | 101% | 105% | 105% | 98.5% | > 10 µM | > 10 µM | > 10 µM | > 10 µM | > 10 µM | 0 | 0 | 0 | 0 | 0 |
| O=C(CSc1nc2c(c(=O)n1-c1ccccc1)SCC2)Nc1ccc(-c2ccccc2)cn1 [IWP-L6] | 89.2% | 102% | 96.2% | 92.6% | 90.1% | 94.4% | 96.6% | 91.7% | 98.8% | 87.5% | 100% | 92.1% | 105% | 106% | 99.3% | 95.4% | 97.6% | 93.4% | 97.1% | 94.9% | 97% | 97.7% | 95.3% | 95.1% | 96.1% | > 10 µM | > 10 µM | > 10 µM | > 10 µM | > 10 µM | 0 | 0 | 0 | 0 | 0 |
| COc1cc2c(cc1OC)[C@H](C)NCC2 [Isoquinoline,-6,7-dimethoxy-1-methyl-1,2,3,4-tetrahydro,] | 92.5% | 89.1% | 99.4% | 92.3% | 112% | 109% | 104% | 101% | 109% | 96.1% | 100% | 95.6% | 99.9% | 97.4% | 101% | 102% | 103% | 104% | 90.4% | 102% | 97.3% | 96.5% | 96.8% | 96.5% | 106% | > 10 µM | > 10 µM | > 10 µM | > 10 µM | > 10 µM | 0 | 0 | 0 | 0 | 0 |
| Cc1cc(-c2ncc(CC(=O)Nc3ccc(-c4cnccn4)cn3)cc2C)ccn1 [LGK-974] | 97.1% | 96.6% | 89.2% | 91.2% | 75.2% | 93.6% | 97% | 84.2% | 90.3% | 87.8% | 95% | 99.7% | 97.9% | 96.9% | 39.6% | 97.4% | 96.8% | 92.7% | 93.4% | 91.4% | 93% | 96.6% | 90.7% | 93.4% | 107% | > 10 µM | > 10 µM | 2.77 µM | > 10 µM | > 10 µM | 1.8 | 0.8 | 3.7 | 0 | 0 |
| Cc1c(C(=O)NCc2cccnc2)nn(-c2ccc(Cl)cc2Cl)c1-c1ccc(Cl)cc1 [MJ-15] | 88% | 87.7% | 92.2% | 84.3% | 79.1% | 90.5% | 86.7% | 103% | 90.4% | 97% | 91.8% | 111% | 96.2% | 101% | 98.8% | 99.2% | 96.5% | 102% | 88.8% | 95.3% | 92.5% | 96.4% | 94.8% | 90.2% | 99.2% | > 10 µM | > 10 µM | > 10 µM | > 10 µM | > 10 µM | 0 | 0 | 0 | 0 | 0 |
| COc1ccc(C2CC(c3ccccc3)=NN2c2ccc(S(N)(=O)=O)cc2)cc1 (stereo not given) [ML141] | 94.9% | 95.2% | 97.6% | 97.8% | 80.7% | 85.8% | 105% | 105% | 110% | 104% | 106% | 102% | 102% | 104% | 94.8% | 102% | 110% | 93.3% | 108% | 94% | 112% | 103% | 109% | 95.9% | 102% | > 10 µM | > 10 µM | > 10 µM | > 10 µM | > 10 µM | 0.8 | 0 | 0 | 0 | 0 |
| COCc1nc2c([nH]1)c(=O)n(C)c(=O)n2CC(C)C [MMPX] | 91.8% | 91.8% | 96.9% | 95.7% | 96.3% | 102% | 100% | 98.1% | 103% | 96% | 98% | 94% | 101% | 94.9% | 100% | 95.8% | 100% | 96.4% | 104% | 98.2% | 97.8% | 94.2% | 99.2% | 97.5% | 99.2% | > 10 µM | > 10 µM | > 10 µM | > 10 µM | > 10 µM | 0 | 0 | 0 | 0 | 0 |
| CC[N+](C)(CC)CC(=O)Nc1c(C)cccc1C [N-methyllidocaine-iodide] | 88% | 101% | 103% | 94.8% | 102% | 98.2% | 102% | 102% | 96.7% | 102% | 106% | 95.4% | 93.7% | 111% | 107% | 95.1% | 101% | 96.7% | 97.4% | 100% | 98.7% | 96.2% | 99.2% | 102% | 101% | > 10 µM | > 10 µM | > 10 µM | > 10 µM | > 10 µM | 0 | 0 | 0 | 0 | 0 |
| CC(C)CCNc1ncccc1C(=O)N1CCN(Cc2ccccc2)CC1 [NSI-189] | 96.8% | 97.8% | 100% | 92.9% | 106% | 96.3% | 108% | 92.5% | 92.7% | 115% | 108% | 91.5% | 102% | 91.2% | 103% | 97.5% | 98% | 95.5% | 97.8% | 99.3% | 96.5% | 95.7% | 94.9% | 93.3% | 104% | > 10 µM | > 10 µM | > 10 µM | > 10 µM | > 10 µM | 0 | 0 | 0 | 0 | 0 |
| C=C(C)[C@@H]1CCC(C)=C[C@H]1c1c(OC)cc(C)cc1OC [O-1918] | 96.4% | 105% | 100% | 98.5% | 105% | 102% | 97.5% | 96% | 91.6% | 95.9% | 101% | 94.9% | 104% | 95.3% | 95.9% | 102% | 106% | 97% | 101% | 99% | 106% | 102% | 106% | 99.5% | 102% | > 10 µM | > 10 µM | > 10 µM | > 10 µM | > 10 µM | 0 | 0 | 0 | 0 | 0 |
| Nc1ncnc2c1c(-c1cnc3[nH]ccc3c1)nn2C1CCCC1 [PP-121] | 105% | 100% | 90.5% | 43.6% | 13.1% | 98% | 100% | 85.7% | 33.4% | 15.3% | 121% | 106% | 104% | 58.3% | 11.4% | 104% | 98.5% | 97% | 48% | 1.6% | 99.5% | 104% | 102% | 73.7% | 9.3% | 0.596 µM | 0.355 µM | 1.05 µM | 0.933 µM | 1.43 µM | 12.1 | 14.2 | 10.2 | 11.6 | 8.9 |
| CC(O)Cn1cnc2c1c(=O)n(C)c(=O)n2C (stereo not given) [Proxyphylline] | 102% | 93.9% | 99.9% | 101% | 94.6% | 92.5% | 100% | 106% | 99.3% | 104% | 106% | 102% | 98.7% | 111% | 103% | 98.9% | 92.8% | 95.1% | 93.6% | 104% | 90.1% | 99.1% | 87% | 90.8% | 108% | > 10 µM | > 10 µM | > 10 µM | > 10 µM | > 10 µM | 0 | 0 | 0 | 0 | 0 |
| CCOC(=O)Nc1ccc(NCc2ccc(F)cc2)cc1N [Retigabine] | 100% | 102% | 104% | 96.8% | 106% | 91.8% | 88.5% | 98.4% | 103% | 98.3% | 97.6% | 106% | 100% | 102% | 105% | 102% | 97.4% | 104% | 97% | 98% | 89.5% | 99.1% | 96.1% | 93.5% | 111% | > 10 µM | > 10 µM | > 10 µM | > 10 µM | > 10 µM | 0 | 0 | 0 | 0 | 0 |
| COc1cc(Cc2cnc(N)nc2N)c(C(C)C)cc1OC [Ro-3] | 94.9% | 90.5% | 97.3% | 101% | 102% | 98.1% | 87.8% | 98% | 101% | 103% | 99.2% | 92.3% | 93.5% | 101% | 103% | 97.8% | 99.7% | 95% | 102% | 102% | 90.6% | 95.7% | 96.5% | 94.9% | 103% | > 10 µM | > 10 µM | > 10 µM | > 10 µM | > 10 µM | 0 | 0 | 0 | 0 | 0 |
